Key:
[1] = target: T1, PSMA on LNCaP cells (Homo sapiens, UniProt Q04609); experiment: Saturation binding study on intact LNCaP cells; conditions: 120 min at 4°C
T1 construct: host or cells: LNCaP cells
Method: The next day, the medium was removed, the cells washed and incubated for 1 h at 37°C with fresh binding buffer (RPMI Medium 1640-GlutaMAX containing 1% FBS, 100 U/mL penicillin and 100 μg/mL streptomycin, 50 mM Hepes, 50 μg/mL bacitracin, 0.5% BSA). Afterwards, the plates were placed on ice for 30 min followed by incubation with increasing concentrations of either ^68/natGa-CC34, ^64/natCu-CC34, ^111/natIn-CC34 and ^111/[…]-617 (1-100 nM) in phosphate-buffered saline binding buffer pH 7.4. After the addition of the radioligands, the cells were incubated for 120 min at 4°C. […] The cells were washed twice with ice-cold PBS, followed by solubilization with 1 N NaOH and the cell-associated radioactivity was measured using a gamma-counter. Specific binding was plotted against the total molar concentration of the added radiotracer. […] For all the cell studies the values are normalized for 1x10^6 cells per well and all data are from two independent experiments with triplicates in each experiment.

[2] = Lipophilicity (LogD, pH 7.4), shake-flask method; type: physicochemical; conditions: octanol/PBS pH 7.4, shake-flask
Method: The lipophilicity (LogD, pH 7.4) was estimated by the “shake-flask” method (S3 Appendix).
The mixture was vortexed for 1 h to reach the equilibrium and then centrifuged (3000 rpm) for 10 min. From each phase, an aliquot (100 μL) was pipetted out and measured in a γ-counter. Each measurement was repeated five times. Care was taken to avoid cross-contamination between the phases. The partition coefficient was calculated as the average log ratio of the radioactivity in the organic fraction and the PBS fraction.

[3] = test system: LNCaP xenografts; experiment: Biodistribution in LNCaP xenografts; type: in vivo, Balb/C nude mice; conditions: for Adrenal (biodistribution) / Blood (biodistribution) / Heart (biodistribution) / Intestine (biodistribution) / Kidney (biodistribution) / LNCaP-tumor (tumor uptake, biodistribution) / Lung (biodistribution) / Muscle (biodistribution) / Pancreas (biodistribution) / Spleen (biodistribution) / Stomach (biodistribution) / Bone (biodistribution) / Liver (biodistribution) / Tumor/blood / Tumor/kidney / Tumor/muscle: 10 pmol i.v., LNCaP mice; for Tumor/blood / Tumor/kidney / Tumor/muscle: ratio
Method: Female athymic Balb/C nude mice (age: 4–6 weeks, weight: 17–20 g) were purchased from Janvier, France. […] All animal experiments were conducted in strict accordance with the recommendations in the Guide for the Care and Use of Laboratory Animals of the National Institutes of Health. […]

[4] = 1 h p.i. blocked (co-injected 20 nmol PMPA)

T1 sequence (Q04609 whole entry): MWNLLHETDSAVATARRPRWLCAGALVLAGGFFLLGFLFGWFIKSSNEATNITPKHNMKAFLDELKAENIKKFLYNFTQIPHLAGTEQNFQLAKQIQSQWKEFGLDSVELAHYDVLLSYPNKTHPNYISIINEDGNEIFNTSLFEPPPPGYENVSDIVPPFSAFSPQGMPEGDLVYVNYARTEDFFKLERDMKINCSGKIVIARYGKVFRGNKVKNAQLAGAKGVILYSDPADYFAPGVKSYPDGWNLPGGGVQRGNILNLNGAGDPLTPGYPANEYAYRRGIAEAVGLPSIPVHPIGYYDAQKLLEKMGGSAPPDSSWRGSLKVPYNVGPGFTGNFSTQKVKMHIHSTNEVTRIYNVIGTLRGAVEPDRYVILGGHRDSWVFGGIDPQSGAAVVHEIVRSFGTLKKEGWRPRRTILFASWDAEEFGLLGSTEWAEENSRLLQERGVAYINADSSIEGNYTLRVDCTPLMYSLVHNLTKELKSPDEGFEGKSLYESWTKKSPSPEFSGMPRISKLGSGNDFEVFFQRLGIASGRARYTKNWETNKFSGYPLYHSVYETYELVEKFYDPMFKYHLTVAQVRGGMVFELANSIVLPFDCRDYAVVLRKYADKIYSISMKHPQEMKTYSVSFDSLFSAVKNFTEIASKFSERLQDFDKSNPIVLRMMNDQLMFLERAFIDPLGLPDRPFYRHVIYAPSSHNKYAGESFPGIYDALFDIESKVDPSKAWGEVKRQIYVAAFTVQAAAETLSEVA

O=C([O-])CN(CCN(CC(=O)[O-])Cc1cc(CCC(=O)NCCCCCC(=O)NCCCC[C@H](NC(=O)N[C@@H](CCC(=O)O)C(=O)O)C(=O)O)ccc1[O-])Cc1cc(CCC(=O)O)ccc1[O-].[68Ga+3].[OH3+] [^68Ga-HBED-CC-PSMA, HBED-CC-Ahx-Lys-NH-CO-NH-Glu]
Bmax (maximum number of binding sites) [1]: 0.41 ± 0.02 nM
Kd ([1]; non-specific binding with 1 μM PMPA, read-out: Kd (dissociation constant)): 2.9 ± 0.6 nM
LogDoctanol/PBS [2]: -4.06 ± 0.10
Adrenal (biodistribution) [3, 4]: 1.1±0.5 %IA/g
Blood (biodistribution) [3, 4]: 0.4±0.04 %IA/g
Heart (biodistribution) [3, 4]: 0.2±0.06 %IA/g
Intestine (biodistribution) [3, 4]: 0.3±0.04 %IA/g
Kidney (biodistribution) [3, 4]: 11±3 %IA/g
LNCaP-tumor (tumor uptake, biodistribution) [3, 4]: 4.1±1.2 %IA/g
Lung (biodistribution) [3, 4]: 0.7±0.2 %IA/g
Muscle (biodistribution) [3, 4]: 0.2±0.1 %IA/g
Pancreas (biodistribution) [3, 4]: 0.3±0.04 %IA/g
Spleen (biodistribution) [3, 4]: 2.1±0.06 %IA/g
Stomach (biodistribution) [3, 4]: 0.3±0.01 %IA/g
Adrenal (biodistribution) ([3]; 1 h p.i.): 23±4 %IA/g
Blood (biodistribution) ([3]; 1 h p.i.): 0.2±0.04 %IA/g
Bone (biodistribution) ([3]; 1 h p.i.): 0.5±0.05 %IA/g
Heart (biodistribution) ([3]; 1 h p.i.): 0.6±0.06 %IA/g
Intestine (biodistribution) ([3]; 1 h p.i.): 0.5±0.1 %IA/g
Kidney (biodistribution) ([3]; 1 h p.i.): 208±4 %IA/g
LNCaP-tumor (tumor uptake, biodistribution) ([3]; 1 h p.i.): 15.8±1.4 %IA/g
Liver (biodistribution) ([3]; 1 h p.i.): 0.4±0.01 %IA/g
Lung (biodistribution) ([3]; 1 h p.i.): 3.5±0.2 %IA/g
Muscle (biodistribution) ([3]; 1 h p.i.): 0.6±0.06 %IA/g
Pancreas (biodistribution) ([3]; 1 h p.i.): 1.4±0.3 %IA/g
Spleen (biodistribution) ([3]; 1 h p.i.): 31±6 %IA/g
Stomach (biodistribution) ([3]; 1 h p.i.): 0.7±0.1 %IA/g
Adrenal (biodistribution) ([3]; 2 h p.i.): 23±0.8 %IA/g
Bone (biodistribution) ([3]; 2 h p.i.): 0.4±0.2 %IA/g
Heart (biodistribution) ([3]; 2 h p.i.): 0.6±0.02 %IA/g
Intestine (biodistribution) ([3]; 2 h p.i.): 0.5±0.2 %IA/g
Kidney (biodistribution) ([3]; 2 h p.i.): 211±29 %IA/g
LNCaP-tumor (tumor uptake, biodistribution) ([3]; 2 h p.i.): 14.8±2.2 %IA/g
Liver (biodistribution) ([3]; 2 h p.i.): 0.4±0.05 %IA/g
Lung (biodistribution) ([3]; 2 h p.i.): 3.2±0.2 %IA/g
Muscle (biodistribution) ([3]; 2 h p.i.): 0.6±0.2 %IA/g
Pancreas (biodistribution) ([3]; 2 h p.i.): 2±0.5 %IA/g
Spleen (biodistribution) ([3]; 2 h p.i.): 29±2 %IA/g
Stomach (biodistribution) ([3]; 2 h p.i.): 1±0.6 %IA/g
reduction of the tumor uptake (blocking) ([3]; LNCaP tumor, 1 h p.i., co-injection of 20 nmol PMPA): about 75%
Tumor/blood ([3]; 1 h p.i.): 68±4
Tumor/kidney ([3]; 1 h p.i.): 0.08±0.01
Tumor/muscle ([3]; 1 h p.i.): 29±6
Tumor/blood ([3]; 2 h p.i.): 83±15
Tumor/kidney ([3]; 2 h p.i.): 0.07±0.02
Tumor/muscle ([3]; 2 h p.i.): 24±3

From PMC4689406, “(R)-NODAGA-PSMA: A Versatile Precursor for Radiometal Labeling and Nuclear Imaging of PSMA-Positive Tumors” (PLoS ONE, 2015)
